This is an account of results in patent publication US9737542B2, “Pyrrolotriazine kinase inhibitors” (BRISTOL-MYERS SQUIBB COMPANY, priority 2013, dated 2017).

SMILES strings stand for the structures.

The target of the first test is GST-Xa-hAAK1 (Homo sapiens (Human), UniProt Q2M2I8). Kind of test: AAK1 Kinase Assay. Format: biochemical. The settings on record: ATP 22 μM; 3 hours at room temperature.
Chain of GST-Xa-hAAK1 (Q2M2I8 whole entry): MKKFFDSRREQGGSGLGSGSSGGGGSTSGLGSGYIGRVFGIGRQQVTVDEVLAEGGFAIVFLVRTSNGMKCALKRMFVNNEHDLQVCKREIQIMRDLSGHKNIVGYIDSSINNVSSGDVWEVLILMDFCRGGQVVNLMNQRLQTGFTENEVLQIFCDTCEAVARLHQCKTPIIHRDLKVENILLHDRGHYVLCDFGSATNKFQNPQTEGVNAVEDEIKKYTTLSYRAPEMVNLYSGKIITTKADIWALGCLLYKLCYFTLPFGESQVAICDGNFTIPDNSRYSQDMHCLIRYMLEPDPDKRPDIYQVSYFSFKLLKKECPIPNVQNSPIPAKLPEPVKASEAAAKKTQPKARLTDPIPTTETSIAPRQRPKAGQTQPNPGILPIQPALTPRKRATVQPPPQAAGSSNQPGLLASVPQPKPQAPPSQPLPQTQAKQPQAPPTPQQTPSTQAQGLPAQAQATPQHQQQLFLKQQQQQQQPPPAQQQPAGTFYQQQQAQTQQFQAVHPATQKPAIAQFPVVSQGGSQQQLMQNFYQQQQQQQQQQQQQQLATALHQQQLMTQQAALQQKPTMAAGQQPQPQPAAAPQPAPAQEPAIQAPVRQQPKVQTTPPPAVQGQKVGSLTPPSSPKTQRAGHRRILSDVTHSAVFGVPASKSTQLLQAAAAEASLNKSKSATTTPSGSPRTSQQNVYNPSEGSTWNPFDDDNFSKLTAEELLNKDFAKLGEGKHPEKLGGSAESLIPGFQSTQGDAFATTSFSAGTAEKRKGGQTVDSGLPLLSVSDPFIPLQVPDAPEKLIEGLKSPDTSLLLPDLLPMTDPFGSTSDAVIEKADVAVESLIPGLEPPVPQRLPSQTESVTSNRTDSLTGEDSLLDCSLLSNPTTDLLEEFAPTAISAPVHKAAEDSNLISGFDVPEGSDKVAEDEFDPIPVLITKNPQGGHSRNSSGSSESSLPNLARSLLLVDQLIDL
Procedure: The assays were performed in U-bottom 384-well plates. […] The reactions were initiated by the combination of bacterially expressed, GST-Xa-hAAK1 with substrates and test compounds. The reactions were incubated at room temperature for 3 hours and terminated by adding 60 μl of 35 mM EDTA buffer to each sample. The reactions were analyzed on the Caliper LabChip 3000 (Caliper, Hopkinton, Mass.) by electrophoretic separation of the fluorescent substrate and phosphorylated product. Inhibition data were calculated by comparison to EDTA quenched control reactions for 100% inhibition and vehicle-only reactions for 0% inhibition. […] Dose response curves were generated to determine the concentration required inhibiting 50% of kinase activity (IC50). Compounds were dissolved at 10 mM in dimethylsulfoxide (DMSO) and evaluated at eleven concentrations. IC50 values were derived by non-linear regression analysis.
One may read the IC50 as the concentration needed to halve the response being measured. Read a low IC50 as higher potency. Turning to `CC(C)n1nnc(-c2cccc(Nc3ncnn4ccc(CN5[C@@H]6CC[C@H]5CC(O)C6)c34)c2)n1` (stereo partly drawn) [Example 59, (1R,5S)-8-((4-((3-(2-isopropyl-2H-tetrazol-5-yl)phenyl)amino)pyrrolo[2,1-f][1,2,4]triazin-5-yl)methyl)-8-azabicyclo[3.2.1]octan-3-ol], half-maximal inhibition (IC50) required 128 nM.

On to `CC(C)n1nnc(-c2cccc(NCc3ccn4ncnc(Nc5cccc(-c6nnn(C(C)C)n6)c5)c34)c2)n1` [Example 61, N-(3-(2-isopropyl-2H-tetrazol-5-yl)phenyl)-5-(((3-(2-isopropyl-2H-tetrazol-5-yl)phenyl)amino)methyl)pyrrolo[2,1-f][1,2,4]triazin-4-amine], for which the IC50 came out at 2580 nM.

Regarding `CC(C)n1nnc(-c2cccc(Nc3ncnn4ccc(CN5CCC(C#N)CC5)c34)c2)n1` [Example 65, 1-((4-((3-(2-isopropyl-2H-tetrazol-5-yl)phenyl)amino)pyrrolo[2,1-f][1,2,4]triazin-5-yl)methyl)piperidine-4-carbonitrile], the IC50 was determined as 72 nM.

`CC(C)n1nnc(-c2cccc(Nc3ncnn4ccc(CNCC#N)c34)c2)n1` [Example 66, 2-(((4-((3-(2-isopropyl-2H-tetrazol-5-yl)phenyl)amino)pyrrolo[2,1-f][1,2,4]triazin-5-yl)methyl)amino)acetonitrile]: the IC50 turned out to be 1100 nM.

`NC1CCN(Cc2ccn3ncnc(Nc4cccc(-c5noc(C6CCCC6)n5)c4)c23)CC1` [Example 73, 5-((4-aminopiperidin-1-yl)methyl)-N-(3-(5-cyclopentyl-1,2,4-oxadiazol-3-yl)phenyl)pyrrolo[2,1-f][1,2,4]triazin-4-amine] registered an IC50 of 16 nM.

`CC(C)n1nnc(-c2cccc(Nc3ncnn4cccc34)c2)n1` [Example 76, N-(3-(2-isopropyl-2H-tetrazol-5-yl)phenyl)pyrrolo[2,1-f][1,2,4]triazin-4-amine]: the IC50 was determined as 220 nM.

As for `CC(C)c1nc(-c2cccc(Nc3ncnn4cccc34)c2)no1` [Example 77, N-(3-(5-isopropyl-1,2,4-oxadiazol-3-yl)phenyl)pyrrolo[2,1-f][1,2,4]triazin-4-amine], the concentration for half-maximal inhibition (IC50) is 291 nM.

Take `CC(C)(CCl)c1nc(-c2cccc(Nc3ncnn4cccc34)c2)no1` [Example 78, N-(3-(5-(1-chloro-2-methylpropan-2-yl)-1,2,4-oxadiazol-3-yl)phenyl)pyrrolo[2,1-f][1,2,4]triazin-4-amine]: the IC50 was 112 nM.

The compound `CC(C)c1nnc(-c2cccc(Nc3ncnn4cccc34)c2)s1` [Example 79, N-(3-(5-isopropyl-1,3,4-thiadiazol-2-yl)phenyl)pyrrolo[2,1-f][1,2,4]triazin-4-amine] showed an IC50 of 269 nM.

With `CC(C)c1nnc(-c2cccc(Nc3ncnn4cccc34)c2)o1` [Example 80, N-(3-(5-isopropyl-1,3,4-oxadiazol-2-yl)phenyl)pyrrolo[2,1-f][1,2,4]triazin-4-amine], it took 384 nM to reach half-maximal inhibition (IC50).

Compound `CC(C)(CO)c1nc(-c2cccc(Nc3ncnn4cccc34)c2)no1` [Example 81, 2-methyl-2-(3-(3-(pyrrolo[2,1-f][1,2,4]triazin-4-ylamino)phenyl)-1,2,4-oxadiazol-5-yl)propan-1-ol] came in with an IC50 of 413 nM.

`CC(C)(CN)c1nc(-c2cccc(Nc3ncnn4cccc34)c2)no1` [Example 82, N-(3-(5-(1-amino-2-methylpropan-2-yl)-1,2,4-oxadiazol-3-yl)phenyl)pyrrolo[2,1-f][1,2,4]triazin-4-amine] displayed an IC50 of 67 nM.

The compound `CC(C)n1nnc(-c2cc(CO)cc(Nc3ncnn4cccc34)c2)n1` [Example 83, (3-(2-isopropyl-2H-tetrazol-5-yl)-5-(pyrrolo[2,1-f][1,2,4]triazin-4-ylamino)phenyl)methanol] came in with an IC50 of 406 nM.

Compound `CC(C)n1nnc(-c2cc(O)cc(Nc3ncnn4cccc34)c2)n1` [Example 84, 3-(2-isopropyl-2H-tetrazol-5-yl)-5-(pyrrolo[2,1-f][1,2,4]triazin-4-ylamino)phenol] gave an IC50 of 75 nM.

As to `CC(C)c1nc(-c2cc(O)cc(Nc3ncnn4cccc34)c2)no1` [Example 85, 3-(5-isopropyl-1,2,4-oxadiazol-3-yl)-5-(pyrrolo[2,1-f][1,2,4]triazin-4-ylamino)phenol], the IC50 is 82 nM.

On to `Cc1ccn2ncnc(Nc3cccc(-c4noc(C(C)C)n4)c3)c12` [Example 86], for which the IC50 came to 123 nM.

In the case of `Cc1ccn2ncnc(Nc3cccc(-c4nnc(C(C)C)s4)c3)c12` [Example 87, N-(3-(5-isopropyl-1,3,4-thiadiazol-2-yl)phenyl)-5-methylpyrrolo[2,1-f][1,2,4]triazin-4-amine], the IC50 is 325 nM.

For the compound `Cc1ccn2ncnc(Nc3cccc(-c4nnn(C(C)C)n4)c3)c12` [Example 88, N-(3-(2-isopropyl-2H-tetrazol-5-yl)phenyl)-5-methylpyrrolo[2,1-f][1,2,4]triazin-4-amine], half-maximal inhibition (IC50) required 22 nM.

The same test, now with this note: ATP 22 μM; 3 hours at room temperature; listed as IC50 ranges.
The compound `CC(C)c1nnc(-c2cccc(Nc3ncnn4ccc(CN5CCN(C)CC5)c34)c2)s1` [Example 55, N-(3-(5-isopropyl-1,3,4-thiadiazol-2-yl)phenyl)-5-((4-methylpiperazin-1-yl)methyl)pyrrolo[2,1-f][1,2,4]triazin-4-amine] registered an IC50 of 100 to 1000 nM.

As to `CC(C)c1nnc(-c2cccc(Nc3ncnn4ccc(CN5CCOCC5)c34)c2)s1` [Example 56, N-(3-(5-isopropyl-1,3,4-thiadiazol-2-yl)phenyl)-5-(morpholinomethyl)pyrrolo[2,1-f][1,2,4]triazin-4-amine], the IC50 is 1000 to 5000 nM.

Regarding `CC(C)n1nnc(-c2cccc(Nc3ncnn4ccc(CN5CCOCC5)c34)c2)n1` [Example 57, N-(3-(2-isopropyl-2H-tetrazol-5-yl)phenyl)-5-(morpholinomethyl)pyrrolo[2,1-f][1,2,4]triazin-4-amine], the IC50 is 10 to 100 nM.

For `CC(C)n1nnc(-c2cccc(Nc3ncnn4ccc(CNC5CC6CCC(C5)N6C)c34)c2)n1` (stereo not shown) [Example 58, N-(3-(2-isopropyl-2H-tetrazol-5-yl)phenyl)-5-((8-methyl-8-azabicyclo[3.2.1]octan-3-ylamino)methyl)pyrrolo[1,2-f][1,2,4]triazin-4-amine], the IC50 was in the range of 1000 to 5000 nM.

`CC(C)n1nnc(-c2cccc(Nc3ncnn4ccc(CN5[C@@H]6CC[C@H]5CN(C)C6)c34)c2)n1` [Example 60, N-(3-(2-isopropyl-2H-tetrazol-5-yl)phenyl)-5-(((1R,5S)-3-methyl-3,8-diazabicyclo[3.2.1]octan-8-yl)methyl)pyrrolo[2,1-f][1,2,4]triazin-4-amine] registered an IC50 of 100 to 1000 nM.

The compound `CC(C)Oc1cc(Nc2ncnn3ccc(CN4CCC(N)CC4)c23)cc(-c2nnn(C(C)C)n2)c1` [Example 62, 5-((4-aminopiperidin-1-yl)methyl)-N-(3-isopropoxy-5-(2-isopropyl-2H-tetrazol-5-yl)phenyl)pyrrolo[2,1-f][1,2,4]triazin-4-amine] displayed an IC50 of 100 to 1000 nM.

Take `CNCc1ccn2ncnc(Nc3cccc(-c4nnn(C(C)C)n4)c3)c12` [Example 63, N-(3-(2-isopropyl-2H-tetrazol-5-yl)phenyl)-5-((methylamino)methyl)pyrrolo[2,1-f][1,2,4]triazin-4-amine]: the IC50 was in the range of 100 to 1000 nM.

In turn, `CC(C)n1nnc(-c2cccc(Nc3ncnn4ccc(CN5CC(C#N)C5)c34)c2)n1` [Example 64, 1-((4-((3-(2-isopropyl-2H-tetrazol-5-yl)phenyl)amino)pyrrolo[2,1-f][1,2,4]triazin-5-yl)methyl)azetidine-3-carbonitrile] had an IC50 of 100 to 1000 nM.

As to `CC(C)C[C@@H](N)C(=O)Nc1cccc(Nc2ncnn3ccc(CN4CCC(N)CC4)c23)c1` [Example 67, (R)-2-amino-N-(3-((5-((4-aminopiperidin-1-yl)methyl)pyrrolo[2,1-f][1,2,4]triazin-4-yl)amino)phenyl)-4-methylpentanamide], the IC50 lay within 100 to 1000 nM.

Compound `NC1CCN(Cc2cc(Br)n3ncnc(Nc4cccc(-c5cnco5)c4)c23)CC1` [Example 68, 5-((4-aminopiperidin-1-yl)methyl)-7-bromo-N-(3-(oxazol-5-yl)phenyl)pyrrolo[2,1-f][1,2,4]triazin-4-amine] had an IC50 of 1000 to 5000 nM.

For the compound `CC(C)c1nnc(-c2cccc(Nc3ncnn4ccc(CNCCCN)c34)c2)s1` [Example 69, N1-((4-((3-(5-isopropyl-1,3,4-thiadiazol-2-yl)phenyl)amino)pyrrolo[2,1-f][1,2,4]triazin-5-yl)methyl)propane-1,3-diamine], the IC50 lay in the range of 100 to 1000 nM.

In turn, `CC(CN)CNCc1ccn2ncnc(Nc3cccc(-c4nnc(C(C)C)s4)c3)c12` (stereo not shown) [Example 70, N1-((4-((3-(5-isopropyl-1,3,4-thiadiazol-2-yl)phenyl)amino)pyrrolo[2,1-f][1,2,4]triazin-5-yl)methyl)-2-methylpropane-1,3-diamine] registered an IC50 of 100 to 1000 nM.

In turn, `CC(C)c1nnc(-c2cccc(Nc3ncnn4ccc(CN5CCCC(CN)C5)c34)c2)s1` (stereo not shown) [Example 71, 5-((3-(aminomethyl)piperidin-1-yl)methyl)-N-(3-(5-isopropyl-1,3,4-thiadiazol-2-yl)phenyl)pyrrolo[2,1-f][1,2,4]triazin-4-amine] had an IC50 of 1000 to 5000 nM.

In turn, `CC(C)n1nnc(-c2cc(Nc3ncnn4ccc(CN5CCC(N)CC5)c34)cc(C(F)F)c2)n1` [Example 72, 5-((4-aminopiperidin-1-yl)methyl)-N-(3-(difluoromethyl)-5-(2-isopropyl-2H-tetrazol-5-yl)phenyl)pyrrolo[2,1-f][1,2,4]triazin-4-amine] returned an IC50 of 10 to 100 nM.

Turning to `CC(C)n1nnc(-c2cc(Nc3ncnn4ccc(CN5CCC(N)CC5)c34)c3[nH]ccc3c2)n1` [Example 74, 5-((4-aminopiperidin-1-yl)methyl)-N-(5-(2-isopropyl-2H-tetrazol-5-yl)-1H-indol-7-yl)pyrrolo[2,1-f][1,2,4]triazin-4-amine], the IC50 was in the range of 10 to 100 nM.

In the case of `CC(C)n1nnc(-c2cc(Nc3ncnn4ccc(CN5CCC(N)CC5)c34)cc3[nH]cnc23)n1` [Example 75, 5-((4-aminopiperidin-1-yl)methyl)-N-(4-(2-isopropyl-2H-tetrazol-5-yl)-1H-benzo[d]imidazol-6-yl)pyrrolo[2,1-f][1,2,4]triazin-4-amine], the IC50 lay in the range of 100 to 1000 nM.
